According to patent US20080113907A1, “Uses Of Galectin-2” (Charite-Universitat-Smedizin Berlin, priority 2004, published 2008):
Where a SMILES comes first, the peptide text is derived from it. The star is where a group is joined. Cbz = O=C(OCc1ccccc1)*; CH2F = FC*

What was measured:
PBT = assay: Extent of apoptosis and necrosis (annexin-V, PI, DAPI staining); assay type: cell-based, human; conditions: for effect on galectin-2 induced apoptosis: 50 mM; for effect on galectin-1 induced cell death / effect on galectin-2 induced T cell apoptosis / effect on galectin-7 induced cell death: caspase inhibitor 50 μM
Description: Apoptosis was determined by monitoring fragmentation of nuclear DNA and access of annexin V to c ell surface phosphatidylserine (PS). To detect fragmentation of nuclear DNA, T cells were cultured in the presence and absence of the respective galectins, with or without blocking antibodies or further activation for 48 h. Thereafter, cells were fixed in 0.2 ml of 37% formaldehyde for 10 min at room temperature. The cells were then treated with 1 ml PBS containing 0.2% Nonidet P-40 (Sigma-Aldrich) for 2 min at room temperature and then rinsed once in PBS. The apoptotic cells were detected by staining of nuclear DNA with 4,6-diamino-2-phenylindole (DAPI) (Calbiochem). DAPI was added at a concentration of 0.2 ng/ml of PBS and cells were incubated at room temperature for 20 min in this solution. Cells were rinsed twice in PBS and the coverslips were maintained cell side down on a microscope slide and analyzed using a Zeiss Axiovert 135M microscope (Carl Zeiss, Oberkochen, Germany). To detect early phases of apoptosis, access to PS was measured. Cells were cultured as described, harvested at the respective time points, stained with FITC-labeled annexin-V and PI and analyzed by flow cytometry using the CellQuest software program (BD Pharmingen). A minimum of 15,000 cells was monitored in each case.

T cells = assay: Binding of biotinylated Gal-2 to T lymphocytes (flow cytometry); set-up: species or system human; conditions: 50 mM
Description: To measure Gal-2 binding to T lymphocytes, aliquots of cell suspensions were kept as controls or stimulated for 1, 6, 12, 24, 48, and 72 h with anti-CD3 mAb or PMA and PHA and incubated in the presence of 5 μg/ml biotin-labeled Gal-2. Cells were then harvested, washed and stained with anti-CD3-FITC mAb and APC-labeled streptavidin (Biosource) followed by flow cytofluorometric analysis. Cells cultured in the absence of biotin-labeled Gal-2 and stained with FITC-labeled mouse IgG (BD Pharmingen) or APC-labeled streptavidin served as isotype controls. Each analysis was performed on at least 20,000 events.

Molecule	effect on galectin-1 induced cell death (PBT)	effect on galectin-2 induced T cell apoptosis (PBT)	effect on galectin-7 induced cell death (PBT)	also measured
O=P1(N(CCCl)CCCl)NCCCO1 (stereo not shown) [cyclophosphamide]	–	–	–	effect on galectin-2 induced T cell death (PBT; 0, 10, 1000 nM, data not shown): failed to modulate galectin-2 induced T cell death
OC[C@H]1O[C@@H](O[C@H]2[C@H](O)[C@@H](O)C(O)O[C@@H]2CO)[C@H](O)[C@@H](O)[C@H]1O (stereo partly shown) [lactose, reference compound]	–	–	–	reduction of Gal-2 binding to T cells (T cells; unstimulated T cells): more than 70%; effect on galectin-2 induced apoptosis (PBT): largely inhibited
OC[C@H]1O[C@@](CO)(O[C@H]2O[C@H](CO)[C@@H](O)[C@H](O)[C@H]2O)[C@@H](O)[C@@H]1O [sucrose, reference compound]	–	–	–	effect on Gal-2 staining intensity of T cells (T cells; not shown): failed to affect the staining intensity; effect on galectin-2 induced apoptosis (PBT): not
COC(=O)CC[C@H](NC(=O)[C@H](CC(=O)OC)NC(=O)OCc1ccccc1)C(=O)N[C@H](C(=O)N[C@@H](CC(=O)OC)C(=O)CF)C(C)C [zDEVD, Z-Asp-Glu-Val-Asp(OMe)-fluoromethylketone]	impair	significantly inhibited	inhibited	–
COC(=O)CC[C@H](NC(=O)[C@H](CC(C)C)NC(=O)OCc1ccccc1)C(=O)N[C@@H](Cc1cnc[nH]1)C(=O)N[C@@H](CC(=O)OC)C(=O)CF [zLEHD, Z-Leu-Glu(Ome)-His-Asp-(Ome)-Ch2F] (Cbz-LE(OMe)HD(OMe)-CH2F)	blocked	significantly inhibited	not	–
COC(=O)C[C@H](NC(=O)[C@H](C)NC(=O)[C@@H](NC(=O)OCc1ccccc1)C(C)C)C(=O)CF [zVAD, Z-Val-Ala-Asp(OMe)-fluoromethylketone] (Cbz-Val-Ala-Asp(OMe)-CH2F)	impair	significantly inhibited	inhibited	–
COC(=O)C[C@H](NC(=O)[C@H](C)NC(=O)[C@@H](NC(=O)[C@H](Cc1ccc(O)cc1)NC(=O)OCc1ccccc1)C(C)C)C(=O)CF [zYVAD, Z-Tyr-Val-Ala-Asp(Ome)-Ch2F]	–	had no effect	blocked	–
Z-Ile-Glu-Thr-Asp(OMe)-fluoromethylketone [zIETD]	blocked	had no effect	inhibited	–
